Experimental data taken from PubChem BioAssay (NCI).
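Briefly, cells in 96-well plates were exposed to five compound concentrations for 48 h, and endpoints were estimated by linear interpolation. GI50 marks 50% less growth. Definition used: TGI = concentration required for complete inhibition of growth.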

Experiments:
Assay in all cases: NCI tumour cell line growth inhibition, 48 h
SNB-19 CNS = test system: SNB-19 CNS
786-0 renal = test system: 786-0 renal
OVCAR-5 ovarian = test system: OVCAR-5 ovarian
MALME-3M melanoma = test system: MALME-3M melanoma
NCI-H23 lung = test system: NCI-H23 lung
U251 CNS = test system: U251 CNS
HL-60(TB) leukemia = test system: HL-60(TB) leukemia
RXF 393 renal = test system: RXF 393 renal
KM12 colon = test system: KM12 colon
RPMI-8226 leukemia = test system: RPMI-8226 leukemia

CCNC(=O)Nc1cccc(NC(=O)NCC)n1
TGI (SNB-19 CNS): > 100 µM
TGI (786-0 renal): > 100 µM
TGI (OVCAR-5 ovarian): > 100 µM
TGI (MALME-3M melanoma): > 100 µM
TGI (NCI-H23 lung): > 100 µM
TGI (U251 CNS): > 100 µM
TGI (HL-60(TB) leukemia): > 100 µM
TGI (RXF 393 renal): > 100 µM
TGI (KM12 colon): > 100 µM

CCOc1cc(C(C)(C)C)ccc1C1=N[C@@](C)(c2ccc(Cl)cc2)[C@@](C)(c2ccc(Cl)cc2)N1C(=O)N1CCN(CCCS(C)(=O)=O)CC1
GI50 (SNB-19 CNS): 5.12 µM
TGI (SNB-19 CNS): 17.8 µM
GI50 (786-0 renal): 3.2 µM
TGI (786-0 renal): 15.4 µM
GI50 (OVCAR-5 ovarian): 8.41 µM
TGI (OVCAR-5 ovarian): 20.8 µM
GI50 (MALME-3M melanoma): 0.274 µM
TGI (MALME-3M melanoma): 11.3 µM
GI50 (NCI-H23 lung): 10.4 µM
TGI (NCI-H23 lung): 24.9 µM
GI50 (U251 CNS): 12.2 µM
TGI (U251 CNS): 45.9 µM
GI50 (HL-60(TB) leukemia): 2.48 µM
TGI (HL-60(TB) leukemia): 6.15 µM
GI50 (RPMI-8226 leukemia): 3.13 µM
TGI (RPMI-8226 leukemia): > 100 µM
GI50 (RXF 393 renal): 3.39 µM
TGI (RXF 393 renal): 14.4 µM
GI50 (KM12 colon): 11.4 µM
TGI (KM12 colon): 28 µM

O=C(O)C1C(Br)(c2ccccc2)C1(Br)c1ccccc1 (stereo not drawn)
TGI (SNB-19 CNS): > 100 µM
TGI (786-0 renal): > 100 µM
TGI (OVCAR-5 ovarian): > 100 µM
TGI (MALME-3M melanoma): > 100 µM
TGI (NCI-H23 lung): > 100 µM
TGI (U251 CNS): > 100 µM
TGI (HL-60(TB) leukemia): > 100 µM
TGI (RPMI-8226 leukemia): 74.1 µM
TGI (RXF 393 renal): 41.7 µM
TGI (KM12 colon): > 100 µM

Clc1ccc(C=Nc2ccc3c(c2)Cc2ccccc2-3)c(Cl)c1
TGI (SNB-19 CNS): > 100 µM
TGI (786-0 renal): > 100 µM
TGI (OVCAR-5 ovarian): > 100 µM
TGI (MALME-3M melanoma): > 100 µM
TGI (NCI-H23 lung): > 100 µM
TGI (U251 CNS): > 100 µM
TGI (HL-60(TB) leukemia): > 100 µM
TGI (RPMI-8226 leukemia): > 100 µM
TGI (RXF 393 renal): > 100 µM
TGI (KM12 colon): > 100 µM

O=c1cccc(C#CC#CC2=CCCCC2)o1
GI50 (SNB-19 CNS): 12 µM
TGI (SNB-19 CNS): 32.6 µM
GI50 (786-0 renal): 1.59 µM
TGI (786-0 renal): 4.35 µM
GI50 (OVCAR-5 ovarian): 6.21 µM
TGI (OVCAR-5 ovarian): 10.2 µM
GI50 (MALME-3M melanoma): 7.34 µM
TGI (MALME-3M melanoma): 13.8 µM
GI50 (NCI-H23 lung): 1.14 µM
TGI (NCI-H23 lung): 2.87 µM
GI50 (U251 CNS): 4.13 µM
TGI (U251 CNS): 9.46 µM
GI50 (HL-60(TB) leukemia): 4.77 µM
TGI (HL-60(TB) leukemia): 18.3 µM
GI50 (RPMI-8226 leukemia): 2.19 µM
TGI (RPMI-8226 leukemia): 5.83 µM
GI50 (RXF 393 renal): 2.69 µM
TGI (RXF 393 renal): 5.57 µM
GI50 (KM12 colon): 5.84 µM
TGI (KM12 colon): 13.6 µM

CC(=O)C(=CN1CCN(C(=O)c2ccco2)C1=S)C(C)=O
GI50 (SNB-19 CNS): 30.1 µM
TGI (SNB-19 CNS): 63.6 µM
GI50 (786-0 renal): 5.34 µM
TGI (786-0 renal): 18.8 µM
GI50 (MALME-3M melanoma): 20.7 µM
TGI (MALME-3M melanoma): 47.9 µM
GI50 (NCI-H23 lung): 16.4 µM
TGI (NCI-H23 lung): 31.6 µM
GI50 (U251 CNS): 4.84 µM
TGI (U251 CNS): 23.6 µM
GI50 (HL-60(TB) leukemia): 5.79 µM
TGI (HL-60(TB) leukemia): > 100 µM
GI50 (RPMI-8226 leukemia): 2.74 µM
TGI (RPMI-8226 leukemia): > 100 µM
GI50 (RXF 393 renal): 1.84 µM
TGI (RXF 393 renal): 6.24 µM
GI50 (KM12 colon): 2.83 µM
TGI (KM12 colon): 9.72 µM

C/C(CC(=O)NCCc1ccccc1)=N\NC(=O)C[n+]1ccccc1
TGI (786-0 renal): > 100 µM
TGI (OVCAR-5 ovarian): > 100 µM
TGI (MALME-3M melanoma): > 100 µM
TGI (NCI-H23 lung): > 100 µM
TGI (U251 CNS): > 100 µM
TGI (HL-60(TB) leukemia): > 100 µM
TGI (RPMI-8226 leukemia): > 100 µM
TGI (RXF 393 renal): > 100 µM
TGI (KM12 colon): > 100 µM

O=C1/C(=C/c2cccc([N+](=O)[O-])c2)COc2ccc(Br)cc21
TGI (786-0 renal): > 100 µM
TGI (OVCAR-5 ovarian): > 100 µM
TGI (MALME-3M melanoma): > 100 µM
TGI (NCI-H23 lung): > 100 µM
TGI (U251 CNS): > 100 µM
TGI (HL-60(TB) leukemia): 58 µM
TGI (RPMI-8226 leukemia): 6.57 µM
TGI (RXF 393 renal): > 100 µM
TGI (KM12 colon): > 100 µM

Clc1ccc2c(c1)-c1c3c(nn1-c1ccccc1)-c1ccccc1SC3O2 (stereo not drawn)
TGI (786-0 renal): > 100 µM
TGI (OVCAR-5 ovarian): > 100 µM
TGI (MALME-3M melanoma): > 100 µM
TGI (NCI-H23 lung): > 100 µM
TGI (U251 CNS): > 100 µM
TGI (HL-60(TB) leukemia): > 100 µM
TGI (RPMI-8226 leukemia): > 100 µM
TGI (RXF 393 renal): > 100 µM
TGI (KM12 colon): > 100 µM

Cn1c2ccccc2c(=O)c2ccc(Cl)cc21
TGI (SNB-19 CNS): 4 µM
TGI (786-0 renal): > 10 µM
TGI (MALME-3M melanoma): > 10 µM
TGI (NCI-H23 lung): > 10 µM
TGI (HL-60(TB) leukemia): > 10 µM
TGI (RPMI-8226 leukemia): > 10 µM
TGI (RXF 393 renal): > 10 µM
TGI (KM12 colon): > 10 µM

CC(C)C[C@H](NC(=O)/C=C/Cn1ccc2ccccc2c1=O)B(O)O
GI50 (SNB-19 CNS): 6.49 µM
TGI (SNB-19 CNS): > 100 µM
GI50 (786-0 renal): 5.03 µM
TGI (786-0 renal): > 100 µM
GI50 (OVCAR-5 ovarian): 4.36 µM
TGI (OVCAR-5 ovarian): 39.8 µM
GI50 (MALME-3M melanoma): 3.82 µM
TGI (MALME-3M melanoma): 23 µM
GI50 (NCI-H23 lung): 5.87 µM
TGI (NCI-H23 lung): > 100 µM
GI50 (HL-60(TB) leukemia): 2.95 µM
TGI (HL-60(TB) leukemia): > 100 µM
GI50 (RPMI-8226 leukemia): 0.845 µM
TGI (RPMI-8226 leukemia): > 100 µM
GI50 (RXF 393 renal): 2.13 µM
TGI (RXF 393 renal): 5.15 µM
GI50 (KM12 colon): 4.54 µM
TGI (KM12 colon): 19 µM

C1C[OH+]CC[OH+]CC[OH+]CC[OH+]CC[OH+]1.[Cl-].[V]
GI50 (SNB-19 CNS): 43.5 µM
TGI (SNB-19 CNS): > 100 µM
GI50 (786-0 renal): 19 µM
TGI (786-0 renal): 43.7 µM
GI50 (MALME-3M melanoma): 13.4 µM
TGI (MALME-3M melanoma): 32 µM
GI50 (NCI-H23 lung): 76.9 µM
TGI (NCI-H23 lung): > 100 µM
GI50 (U251 CNS): 50.4 µM
TGI (U251 CNS): > 100 µM
GI50 (HL-60(TB) leukemia): > 100 µM
TGI (HL-60(TB) leukemia): > 100 µM
GI50 (RPMI-8226 leukemia): > 100 µM
TGI (RPMI-8226 leukemia): > 100 µM
GI50 (RXF 393 renal): 18.1 µM
TGI (RXF 393 renal): 36.9 µM
GI50 (KM12 colon): 26.9 µM
TGI (KM12 colon): > 100 µM

O=C1CSC(c2ccc(Cl)cc2Cl)N1c1ccc(F)cc1 (stereo not drawn)
GI50 (786-0 renal): 17.8 µM
TGI (786-0 renal): 31.7 µM
GI50 (OVCAR-5 ovarian): 16 µM
TGI (OVCAR-5 ovarian): 29.5 µM
GI50 (MALME-3M melanoma): 20.4 µM
TGI (MALME-3M melanoma): 35.5 µM
GI50 (NCI-H23 lung): 16.6 µM
TGI (NCI-H23 lung): 31.2 µM
GI50 (U251 CNS): 17.8 µM
TGI (U251 CNS): 31.7 µM
GI50 (HL-60(TB) leukemia): 21.2 µM
TGI (HL-60(TB) leukemia): 45.6 µM
GI50 (RPMI-8226 leukemia): 19.5 µM
TGI (RPMI-8226 leukemia): 42.7 µM
GI50 (RXF 393 renal): 27.4 µM
TGI (RXF 393 renal): 56 µM
GI50 (KM12 colon): 15.6 µM
TGI (KM12 colon): 29.8 µM

COc1c(C(C)C)cc2c3c1OC(=O)[C@@]31CCCC(C)(C)C1CC2 (stereo partly drawn)
TGI (SNB-19 CNS): 51.8 µM
TGI (786-0 renal): > 100 µM
TGI (OVCAR-5 ovarian): > 100 µM
TGI (MALME-3M melanoma): 98.5 µM
TGI (NCI-H23 lung): 89.9 µM
TGI (U251 CNS): > 100 µM
TGI (HL-60(TB) leukemia): 37.4 µM
TGI (RPMI-8226 leukemia): 59.8 µM
TGI (RXF 393 renal): 56.3 µM

O=C1CCC(O)=C1N=Nc1ccccc1
TGI (SNB-19 CNS): > 100 µM
TGI (786-0 renal): > 100 µM
TGI (OVCAR-5 ovarian): > 100 µM
TGI (MALME-3M melanoma): > 100 µM
TGI (NCI-H23 lung): > 100 µM
TGI (U251 CNS): > 100 µM
TGI (HL-60(TB) leukemia): > 100 µM
TGI (RXF 393 renal): > 100 µM
TGI (KM12 colon): > 100 µM

CN(CCC#N)c1ccc(/C=C(\C#N)c2ccc(Br)cc2)cc1
GI50 (SNB-19 CNS): > 100 µM
TGI (SNB-19 CNS): > 100 µM
GI50 (786-0 renal): > 100 µM
TGI (786-0 renal): > 100 µM
GI50 (OVCAR-5 ovarian): > 100 µM
TGI (OVCAR-5 ovarian): > 100 µM
GI50 (MALME-3M melanoma): > 100 µM
TGI (MALME-3M melanoma): > 100 µM
GI50 (NCI-H23 lung): > 100 µM
TGI (NCI-H23 lung): > 100 µM
GI50 (HL-60(TB) leukemia): 4.43 µM
TGI (HL-60(TB) leukemia): > 100 µM
GI50 (RXF 393 renal): 3.37 µM
TGI (RXF 393 renal): > 100 µM
GI50 (KM12 colon): 3.7 µM
TGI (KM12 colon): > 100 µM

COc1ccc(/C=C/C(=O)C(CC2CCC2)C(=O)/C=C/c2ccc(OC)c(OC)c2)cc1OC
GI50 (786-0 renal): 1.83 µM
TGI (786-0 renal): 3.45 µM
GI50 (OVCAR-5 ovarian): 2.55 µM
TGI (OVCAR-5 ovarian): 5.6 µM
GI50 (MALME-3M melanoma): 2.09 µM
TGI (MALME-3M melanoma): 5.04 µM
GI50 (NCI-H23 lung): 2.19 µM
TGI (NCI-H23 lung): 5.87 µM
GI50 (U251 CNS): 1.38 µM
TGI (U251 CNS): 2.79 µM
GI50 (HL-60(TB) leukemia): 1.69 µM
TGI (HL-60(TB) leukemia): 5.94 µM
GI50 (RPMI-8226 leukemia): 1.73 µM
TGI (RPMI-8226 leukemia): 6.4 µM
GI50 (RXF 393 renal): 1.85 µM
TGI (RXF 393 renal): 3.47 µM
GI50 (KM12 colon): 2.22 µM
TGI (KM12 colon): 6.66 µM
